Measured values: patent US20240041042A1, “1-(PYRIDYL)-5-AZINYLPYRAZOLE DERIVATIVES, AND THEIR USE FOR CONTROL OF UNDESIRED PLANT GROWTH” (Bayer Aktiengesellschaft, priority 2020, published 2024)

Legend:
Format in all cases: in vivo
[1] = system: Alopecurus myosuroides (ALOMY); assay: Pre-emergence herbicidal action against ALOMY; settings: scored visually after about 3 weeks, 100% = plants have died
Method in brief: (§1)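 Pre-emergence soil-surface spray, WP/EC formulation, 0.5% additive, 600 l/ha water, rates of 320 g/ha or lower. Greenhouse, ~3 wk. Visual score, % of untreated control (100% = plants dead, 0% = like control).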

[2] = system: Amaranthus retroflexus (AMARE); assay: Pre-emergence herbicidal action against AMARE; settings: visual scoring after about 3 weeks vs untreated controls
Method in brief: as §1

Avena fatua (AVEFA) [3] = assay: Pre-emergence herbicidal action against AVEFA; settings: 320 g/ha, visual scoring after about 3 weeks vs untreated controls
Method in brief: as §1

[4] = system: Echinochloa crus-galli (ECHCG); assay: Pre-emergence herbicidal action against ECHCG
Method in brief: as §1

Lolium rigidum (LOLRI) [5] = assay: Pre-emergence herbicidal action against LOLRI; settings: dosage 320 g/ha
Method in brief: as §1

[6] = system: Matricaria inodora (MATIN); assay: Pre-emergence herbicidal action against MATIN
Method in brief: as §1

[7] = system: Pharbitis purpurea (PHBPU); assay: Pre-emergence herbicidal action against PHBPU
Method in brief: as §1

[8] = system: Polygonum convolvulus (POLCO); assay: Pre-emergence herbicidal action against POLCO
Method in brief: as §1

Setaria viridis (SETVI) [9] = assay: Pre-emergence herbicidal action against SETVI
Method in brief: as §1

[10] = system: Verconica persica (VERPE); assay: Pre-emergence herbicidal action against VERPE
Method in brief: as §1

Viola tricolor (VIOTR) [11] = assay: Pre-emergence herbicidal action against VIOTR
Method in brief: as §1

Oryza sativa (ORYSA) [12] = settings: pre-emergence, 80 g/ha, crop plant compatibility, in comparison to untreated controls
Method in brief: (§2)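 Crop injury rated visually in percent against untreated plants roughly 3 weeks after treatment (0% no effect, 100% plants dead). Compounds, as WP or EC with 0.5% additive in 600 l/ha water, were applied to the covering soil right after sowing; greenhouse growth. Suffixes a, b, c denote different dosages.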

[13] = system: Abutilon theophrasti (ABUTH); assay: Post-emergence herbicidal action against ABUTH; settings: visual rating about 3 weeks after treatment vs untreated controls (100% = plants have died, 0% = like control plants)
Method in brief: (§3)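 Post-emergence greenhouse spray, one-leaf stage, 600 l/ha water plus 0.5% additive; WP or EC formulations; application rates 320 g/ha or lower. Visual % damage vs untreated controls at ~3 weeks.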

[14] = system: Alopecurus myosuroides (ALOMY); assay: Post-emergence herbicidal action against ALOMY; settings: visual rating about 3 weeks after treatment vs untreated controls (100% = plants have died, 0% = like control plants)
Method in brief: as §3

[15] = system: Amaranthus retroflexus (AMARE); assay: Post-emergence herbicidal action against AMARE; settings: 320 g/ha, visual rating about 3 weeks after treatment
Method in brief: as §3

Avena fatua (AVEFA) [16] = assay: Post-emergence herbicidal action against AVEFA; settings: 320 g/ha, visual rating about 3 weeks after treatment
Method in brief: as §3

[17] = system: Echinochloa crus-galli (ECHCG); assay: Post-emergence herbicidal action against ECHCG
Method in brief: as §3

[18] = system: Pharbitis purpurea (PHBPU); assay: Post-emergence herbicidal action against PHBPU
Method in brief: as §3

[19] = system: Polygonum convolvulus (POLCO); assay: Post-emergence herbicidal action against POLCO
Method in brief: as §3

Setaria viridis (SETVI) [20] = assay: Post-emergence herbicidal action against SETVI; settings: dosage 320 g/ha
Method in brief: as §3

[21] = system: Verconica persica (VERPE); assay: Post-emergence herbicidal action against VERPE
Method in brief: as §3

Viola tricolor (VIOTR) [22] = assay: Post-emergence herbicidal action against VIOTR
Method in brief: as §3

Oryza sativa (ORYSA) [23] = settings: crop plant compatibility, 80 g/ha, effect in comparison to untreated controls
Method in brief: (§4)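 Greenhouse crops in sandy loam sprayed post-emergence at the one-leaf stage, 2–3 weeks after sowing, with WP or EC formulations in water plus 0.5% additive at 600 l/ha. Damage rated visually about 3 weeks later versus untreated controls (0% = like control, 100% = dead); suffixes a–c denote different doses.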

Zea mays (ZEAMX) [24] = settings: crop plant compatibility, 80 g/ha, effect vs untreated controls
Method in brief: as §4

Zea mays (ZEAMX) [25] = settings: pre-emergence, 80 g/ha, crop plant compatibility, in comparison to untreated controls
Method in brief: as §2

Lolium rigidum (LOLRI) [26] = assay: Post-emergence herbicidal action against LOLRI
Method in brief: as §3

[27] = system: Matricaria inodora (MATIN); assay: Post-emergence herbicidal action against MATIN; settings: dosage 320 g/ha
Method in brief: as §3

Row | SMILES | Pre-emergence action against ALOMY ([1]; 80 g/ha) [%] | Pre-emergence action against ALOMY ([1]; 320 g/ha) [%] | Pre-emergence action against AMARE in % ([2]; 80 g/ha) [%] | Pre-emergence action against AMARE in % ([2]; 320 g/ha) [%] | Pre-emergence action against AVEFA in % (Avena fatua (AVEFA) [3]) [%] | Pre-emergence action against ECHCG in % ([4]; dosage 320 g/ha) [%] | Pre-emergence action against LOLRI in % (Lolium rigidum (LOLRI) [5]) [%] | Pre-emergence action against MATIN in % ([6]; dosage 320 g/ha) [%] | Pre-emergence action against PHBPU in % ([7]; dosage 320 g/ha) [%] | Pre-emergence action against POLCO in % ([8]; dosage 320 g/ha) [%] | Pre-emergence action against SETVI in % (Setaria viridis (SETVI) [9]; dosage 320 g/ha) [%] | Pre-emergence action against VIOTR in % (Viola tricolor (VIOTR) [11]; 320 g/ha, Viola tricolor) [%] | Pre-emergence action against ORYSA in % (Oryza sativa (ORYSA) [12]) [%] | Post-emergence action against ALOMY in % ([14]; 320 g/ha) [%] | Post-emergence action against ECHCG in % ([17]; dosage 320 g/ha) [%] | Post-emergence action against PHBPU in % ([18]; dosage 320 g/ha) [%] | Post-emergence action against VIOTR in % (Viola tricolor (VIOTR) [22]; 80 g/ha) [%] | Post-emergence action against VIOTR in % (Viola tricolor (VIOTR) [22]; 320 g/ha) [%] | Post-emergence action against ORYSA in % (Oryza sativa (ORYSA) [23]) [%] | Post-emergence action against ZEAMX in % (Zea mays (ZEAMX) [24]) [%] | also measured
1 | O=C(O)COc1nn(-c2nc(F)ccc2F)c(-c2ccc(F)nc2)c1Cl [Example I-337] | 80 | 90 | 90 | 90 | 90 | 90 | 100 | 90 | 80 | 90 | 100 | 100 | 20 | 90 | 90 | 90 | 80 | 80 | 20 | 10 | Pre-emergence action against ECHCG in % ([4]; dosage 80 g/ha): 80%; Pre-emergence action against PHBPU in % ([7]; dosage 80 g/ha): 80%; Pre-emergence action against POLCO in % ([8]; dosage 80 g/ha): 80%; Pre-emergence action against SETVI in % (Setaria viridis (SETVI) [9]; dosage 80 g/ha): 90%; Pre-emergence action against VERPE in % ([10]; dosage 80 g/ha): 90%; Pre-emergence action against VERPE in % ([10]; dosage 320 g/ha): 90%; Pre-emergence action against VIOTR in % (Viola tricolor (VIOTR) [11]; dosage 80 g/ha): 80%; Post-emergence action against ABUTH in % ([13]; 80 g/ha): 80%; Post-emergence action against ABUTH in % ([13]; 320 g/ha): 80%; Post-emergence action against ALOMY in % ([14]; 80 g/ha): 90%; Post-emergence action against AMARE in % [15]: 80%; Post-emergence action against AVEFA in % (Avena fatua (AVEFA) [16]): 80%; Post-emergence action against ECHCG in % ([17]; dosage 80 g/ha): 80%; Post-emergence action against PHBPU in % ([18]; dosage 80 g/ha): 90%; Post-emergence action against POLCO in % ([19]; dosage 80 g/ha): 80%; Post-emergence action against POLCO in % ([19]; dosage 320 g/ha): 80%; Post-emergence action against SETVI in % (Setaria viridis (SETVI) [20]): 80%; Post-emergence action against VERPE in % ([21]; 320 g/ha, VERPE): 80%; Post-emergence action against VERPE in % ([21]; dosage 80 g/ha): 80%
2 | COCCOC(=O)COc1nn(-c2ncccc2C(F)(F)F)c(-c2ccc(F)nc2)c1Cl [Example I-362] | – | 100 | – | 90 | – | – | 100 | – | – | 80 | 80 | 100 | 20 | 90 | 80 | 80 | 80 | 80 | 10 | 0 | Pre-emergence action against ZEAMX in % (Zea mays (ZEAMX) [25]): 0%; Post-emergence action against LOLRI in % (Lolium rigidum (LOLRI) [26]; dosage 320 g/ha): 80%; Post-emergence action against SETVI in % (Setaria viridis (SETVI) [20]): 80%
3 | COC(=O)COc1nn(-c2nc(F)ccc2F)c(-c2ccc(F)nc2)c1Br [Example I-369] | 80 | 100 | 90 | 90 | 80 | 100 | 90 | 90 | 90 | 90 | 90 | 100 | 20 | 100 | 80 | 90 | 80 | 80 | 20 | 10 | Pre-emergence action against MATIN in % ([6]; dosage 80 g/ha): 80%; Pre-emergence action against VERPE in % ([10]; dosage 80 g/ha): 90%; Pre-emergence action against VERPE in % ([10]; dosage 320 g/ha): 90%; Pre-emergence action against VIOTR in % (Viola tricolor (VIOTR) [11]; dosage 80 g/ha): 80%; Post-emergence action against ABUTH in % ([13]; 320 g/ha): 80%; Post-emergence action against ALOMY in % ([14]; 80 g/ha): 80%; Post-emergence action against AMARE in % [15]: 80%; Post-emergence action against AVEFA in % (Avena fatua (AVEFA) [16]): 80%; Post-emergence action against ECHCG in % ([17]; dosage 80 g/ha): 80%; Post-emergence action against LOLRI in % (Lolium rigidum (LOLRI) [26]; dosage 80 g/ha): 80%; Post-emergence action against LOLRI in % (Lolium rigidum (LOLRI) [26]; dosage 320 g/ha): 90%; Post-emergence action against MATIN in % [27]: 80%; Post-emergence action against PHBPU in % ([18]; dosage 80 g/ha): 80%; Post-emergence action against POLCO in % ([19]; dosage 320 g/ha): 80%; Post-emergence action against VERPE in % ([21]; 320 g/ha, VERPE): 80%; Post-emergence action against VERPE in % ([21]; dosage 80 g/ha): 80%
